Source: patent publication US10259818B2, “Bicyclic azaheterocyclobenzylamines as PI3K inhibitors” (Incyte Corporation, priority 2012, dated 2019)

What was measured:
PI3Kδ = PI3Kδ (Homo sapiens (Human), UniProt O00329); assay: PI3K enzyme assay, [γ-33P]ATP filter plate (Example A2); type: biochemical; conditions: Assay A2 (filter plate, 1000 μM ATP)
Procedure: Example A2: PI3K Enzyme Assay
Lipid kinase substrate, phosphoinositol-4,5-bisphosphate (PIP2), are purchased from Echelon Biosciences (Salt Lake City, Utah). PI3K isoforms α, β, δ and γ are purchased from Millipore (Bedford, Mass.). ATP, MgCl2, DTT, EDTA, MOPS and CHAPS are purchased from Sigma-Aldrich (St. Louis, Mo.).
The kinase reaction are conducted in clear-bottom 96-well plate from Thermo Fisher Scientific in a final volume of 24 μL. Inhibitors are first diluted serially in DMSO and added to the plate wells before the addition of other reaction components. The final concentration of DMSO in the assay is 0.5%. The PI3K assays are carried out at room temperature in 20 mM MOPS, pH 6.7, 10 mM MgCl2, 5 mM DTT and CHAPS 0.03%. The reaction mixture is prepared containing 50 μM PIP2, kinase and varying concentration of inhibitors. Reactions are initiated by the addition of ATP containing 2.2 μCi [γ-^33P]ATP to a final concentration of 1000 μM. The final concentration of PI3K isoforms α, β, δ and γ in the assay were 1.3, 9.4, 2.9 and 10.8 nM, respectively. Reactions are incubated for 180 minutes and terminated by the addition of 100 μL of 1 M potassium phosphate pH 8.0, 30 mM EDTA quench buffer. A 100 μL aliquot of the reaction solution are then transferred to 96-well Millipore MultiScreen IP […] PVDF filter plate (The filter plate is prewetted with 200 μL 100% ethanol, distilled water, and 1 M potassium phosphate pH 8.0, respectively). The filter plate is aspirated on a Millipore Manifold under vacuum and washed with 18×200 μL wash buffer containing 1 M potassium phosphate pH 8.0 and 1 mM ATP. After drying by aspiration and blotting, the plate is air dried in an incubator at 37° C. overnight. Packard TopCount adapter (Millipore) is then attached to the plate followed with addition of 120 μL Microscint 20 scintillation cocktail (Perkin Elmer) in each well. After the plate sealing, the radioactivity of the product is determined by scintillation counting on Topcount (Perkin-Elmer). IC50 determination is performed by fitting the curve of percent control activity versus the log of the inhibitor concentration using the GraphPad Prism 3.0 software.

[1] = tested on: SUDHL-6 cell line (diffuse large B cell lymphoma); assay: SUDHL-6 cell proliferation assay (Example B3); type: cell-based; conditions: SUDHL-6 cells, 3 days, Cell Titer-GLO
Outline: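 Cells in RPMI/10% FBS, 5000 per well, exposed to a concentration range of test compound for 3 days. Viability read as ATP content by CellTiter-Glo luminescence after 10 min at room temperature; IC50 derived from the luminescence.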

Sequence of PI3Kδ (O00329 whole entry): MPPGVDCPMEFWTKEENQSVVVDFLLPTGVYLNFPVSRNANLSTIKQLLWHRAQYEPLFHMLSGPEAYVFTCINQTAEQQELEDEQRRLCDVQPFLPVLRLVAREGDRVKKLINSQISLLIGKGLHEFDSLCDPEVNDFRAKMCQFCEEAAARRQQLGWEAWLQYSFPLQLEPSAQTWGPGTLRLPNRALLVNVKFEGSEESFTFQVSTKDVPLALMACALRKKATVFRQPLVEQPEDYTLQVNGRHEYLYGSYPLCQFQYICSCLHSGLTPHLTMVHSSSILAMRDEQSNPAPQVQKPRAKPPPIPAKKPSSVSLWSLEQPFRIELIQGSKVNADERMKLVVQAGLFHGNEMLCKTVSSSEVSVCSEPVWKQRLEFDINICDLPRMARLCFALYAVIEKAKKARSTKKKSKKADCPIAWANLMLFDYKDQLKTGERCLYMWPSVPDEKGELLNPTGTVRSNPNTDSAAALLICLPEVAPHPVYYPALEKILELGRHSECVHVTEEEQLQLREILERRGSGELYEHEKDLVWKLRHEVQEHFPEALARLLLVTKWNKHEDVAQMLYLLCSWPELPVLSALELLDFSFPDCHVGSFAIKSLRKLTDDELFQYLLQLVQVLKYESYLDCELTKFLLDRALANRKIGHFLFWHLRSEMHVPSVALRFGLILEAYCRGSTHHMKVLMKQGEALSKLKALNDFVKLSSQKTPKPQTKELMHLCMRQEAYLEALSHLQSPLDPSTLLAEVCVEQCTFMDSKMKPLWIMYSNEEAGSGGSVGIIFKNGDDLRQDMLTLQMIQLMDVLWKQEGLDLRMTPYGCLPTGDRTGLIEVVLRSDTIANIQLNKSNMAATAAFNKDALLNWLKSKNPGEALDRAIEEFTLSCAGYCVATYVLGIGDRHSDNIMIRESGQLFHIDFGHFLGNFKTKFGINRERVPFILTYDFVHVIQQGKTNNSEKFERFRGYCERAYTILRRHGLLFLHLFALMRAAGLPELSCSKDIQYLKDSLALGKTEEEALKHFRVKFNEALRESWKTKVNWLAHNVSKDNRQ
Sequence of PI3Kδ (P27986 whole entry partner): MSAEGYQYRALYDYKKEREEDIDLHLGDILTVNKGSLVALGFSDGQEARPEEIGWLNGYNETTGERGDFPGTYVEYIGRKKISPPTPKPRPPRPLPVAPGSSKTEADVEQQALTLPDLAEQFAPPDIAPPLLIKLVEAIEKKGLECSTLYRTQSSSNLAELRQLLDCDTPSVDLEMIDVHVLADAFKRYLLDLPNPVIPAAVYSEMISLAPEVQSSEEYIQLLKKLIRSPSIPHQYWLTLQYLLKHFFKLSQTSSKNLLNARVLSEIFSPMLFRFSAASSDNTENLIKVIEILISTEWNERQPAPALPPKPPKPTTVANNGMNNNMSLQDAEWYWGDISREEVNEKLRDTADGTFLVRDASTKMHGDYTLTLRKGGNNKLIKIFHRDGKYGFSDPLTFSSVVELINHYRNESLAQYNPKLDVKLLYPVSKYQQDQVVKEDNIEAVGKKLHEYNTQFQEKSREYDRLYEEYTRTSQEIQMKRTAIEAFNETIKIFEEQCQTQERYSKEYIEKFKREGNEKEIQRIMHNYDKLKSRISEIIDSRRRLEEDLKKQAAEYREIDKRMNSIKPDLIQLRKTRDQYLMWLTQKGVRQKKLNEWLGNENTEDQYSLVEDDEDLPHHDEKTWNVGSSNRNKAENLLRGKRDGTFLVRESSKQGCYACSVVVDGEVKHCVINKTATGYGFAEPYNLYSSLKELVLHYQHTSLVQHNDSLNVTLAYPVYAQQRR

| Compound | IC50 (PI3Kδ) | IC50 [1] | IC50 ([1]; Homo sapiens, SU-DHL-6, 72 h) |
| --- | --- | --- | --- |
| Cc1nn(C(C)c2cc(Cl)c(F)c3c2OC(C)CN(C2CN(C(=O)OC(C)(C)C)C2)C3)c2ncnc(N)c12 (single isomer, unassigned) [Example 27, tert-Butyl 3-[9-[1-(4-amino-3-methyl-1H-pyrazolo[3,4-d]pyrimidin-1-yl)ethyl]-7-chloro-6-fluoro-2-methyl-2,3-dihydro-1,4-benzoxazepin-4(5H)-yl]azetidine-1-carboxylate] | ≤ 100 nM | ≤ 500 nM | – |
| COC(=O)N1CC(N2Cc3c(F)c(Cl)cc(C(C)n4nc(C)c5c(N)ncnc54)c3OC(C)C2)C1 (single isomer, unassigned) [Example 79, methyl 3-[9-[1-(4-amino-3-methyl-1H-pyrazolo[3,4-d]pyrimidin-1-yl)ethyl]-7-chloro-6-fluoro-2-methyl-2,3-dihydro-1,4-benzoxazepin-4(5H)-yl]azetidine-1-carboxylate] | ≤ 100 nM | – | – |
| Cc1nn(C(C)c2cc(Cl)c(F)c3c2OCCCN(S(C)(=O)=O)C3)c2ncnc(N)c12 (stereo not shown) [Example 45, 1-{1-[8-Chloro-7-fluoro-5-(methylsulfonyl)-3,4,5,6-tetrahydro-2H-1,5-benzoxazocin-10-yl]ethyl}-3-methyl-1H-pyrazolo[3,4-d]pyrimidin-4-amine] | ≤ 100 nM | – | ≤ 500 nM |
| Cc1nn(C(C)c2cc(Cl)c(F)c3c2OCCN(C2CN(S(=O)(=O)N(C)C)C2)C3)c2ncnc(N)c12 (stereo not shown) [Example 74, 3-[9-[1-(4-amino-3-methyl-1H-pyrazolo[3,4-d]pyrimidin-1-yl)ethyl]-7-chloro-6-fluoro-2,3-dihydro-1,4-benzoxazepin-4(5H)-yl]-N,N-dimethylazetidine-1-sulfonamide] | – | – | 500 to 1000 nM |
| Cc1nn(C(C)c2cc(Cl)c(F)c3c2OC(C)CN(C2CN(S(C)(=O)=O)C2)C3)c2ncnc(N)c12 (stereo not shown) [Example 75, 1-(1-{7-chloro-6-fluoro-2-methyl-4-[1-(methylsulfonyl)azetidin-3-yl]-2,3,4,5-tetrahydro-1,4-benzoxazepin-9-yl}ethyl)-3-methyl-1H-pyrazolo[3,4-d]pyrimidin-4-amine] | – | – | ≤ 500 nM |
| CCC(=O)N1CC(N2Cc3c(F)c(Cl)cc(C(C)n4nc(C)c5c(N)ncnc54)c3OC(C)C2)C1 (stereo not shown) [Example 76, 1-{1-[7-chloro-6-fluoro-2-methyl-4-(1-propionylazetidin-3-yl)-2,3,4,5-tetrahydro-1,4-benzoxazepin-9-yl]ethyl}-3-methyl-1H-pyrazolo[3,4-d]pyrimidin-4-amine] | – | – | ≤ 500 nM |
| Cc1nn([C@@H](C)c2cc(Cl)c(F)c3c2O[C@@H](C)CN(C2CN(C[C@H](C)O)C2)C3)c2ncnc(N)c12 [Example 85, (2S)-1-{3-[(2S)-9-[(1S)-1-(4-amino-3-methyl-1H-pyrazolo[3,4-d]pyrimidin-1-yl)ethyl]-7-chloro-6-fluoro-2-methyl-2,3-dihydro-1,4-benzoxazepin-4(5H)-yl]azetidin-1-yl}propan-2-ol] | – | – | ≤ 500 nM |
| Cc1nn([C@@H](C)c2cc(Cl)c(F)c3c2O[C@@H](C)CN(C2CN(C[C@@H](C)O)C2)C3)c2ncnc(N)c12 [Example 86, (2R)-1-{3-[(2S)-9-[(1S)-1-(4-amino-3-methyl-1H-pyrazolo[3,4-d]pyrimidin-1-yl)ethyl]-7-chloro-6-fluoro-2-methyl-2,3-dihydro-1,4-benzoxazepin-4(5H)-yl]azetidin-1-yl}propan-2-ol] | – | – | ≤ 500 nM |
| CCC(=O)N1CC(N2CCOc3c(C(C)n4nc(C)c5c(N)ncnc54)cc(Cl)c(C#N)c3C2)C1 (stereo not shown) [Example 89, 9-[1-(4-amino-3-methyl-1H-pyrazolo[3,4-d]pyrimidin-1-yl)ethyl]-7-chloro-4-(1-propionylazetidin-3-yl)-2,3,4,5-tetrahydro-1,4-benzoxazepine-6-carbonitrile] | – | – | ≤ 500 nM |
| Cc1nn(C(C)c2cc(Cl)c(C#N)c3c2OCCN(C2CN(S(C)(=O)=O)C2)C3)c2ncnc(N)c12 (stereo not shown) [Example 90, 9-[1-(4-amino-3-methyl-1H-pyrazolo[3,4-d]pyrimidin-1-yl)ethyl]-7-chloro-4-[1-(methylsulfonyl)azetidin-3-yl]-2,3,4,5-tetrahydro-1,4-benzoxazepine-6-carbonitrile] | – | – | ≤ 500 nM |
| Cc1nn(C(C)c2cc(Cl)c(C#N)c3c2OCCN(C2CN(C(=O)NC(C)C)C2)C3)c2ncnc(N)c12 (stereo not shown) [Example 91, 3-[9-[1-(4-amino-3-methyl-1H-pyrazolo[3,4-d]pyrimidin-1-yl)ethyl]-7-chloro-6-cyano-2,3-dihydro-1,4-benzoxazepin-4(5H)-yl]-N-isopropylazetidine-1-carboxamide] | – | – | ≤ 500 nM |
| CCOC(=O)N1CC(N2CCOc3c(C(C)n4nc(C)c5c(N)ncnc54)cc(Cl)c(C#N)c3C2)C1 (stereo not shown) [Example 92, ethyl 3-[9-[1-(4-amino-3-methyl-1H-pyrazolo[3,4-d]pyrimidin-1-yl)ethyl]-7-chloro-6-cyano-2,3-dihydro-1,4-benzoxazepin-4(5H)-yl]azetidine-1-carboxylate] | – | – | ≤ 500 nM |
| CCC(=O)N1CC(N2Cc3c(C#N)c(Cl)cc(C(C)n4nc(C)c5c(N)ncnc54)c3OC(C)C2)C1 (stereo not shown) [Example 96, 9-[1-(4-amino-3-methyl-1H-pyrazolo[3,4-d]pyrimidin-1-yl)ethyl]-7-chloro-2-methyl-4-(1-propionylazetidin-3-yl)-2,3,4,5-tetrahydro-1,4-benzoxazepine-6-carbonitrile] | ≤ 100 nM | – | ≤ 500 nM |
